# Active and inactive are the calls of the source. No rule for the calls is given here.
# Test system: HT1080 viability, ATPLite luminescence, overnight
# Experiment: HT1080 parental cell cytotoxicity, dose response, cytotoxicity control for MT1-MMP activation inhibitor project, ATPLite luminescence, set 2 (AID 652246)
row,SMILES,IC50
1,CC[n+]1c(/C=C/Nc2ccccc2)sc2ccccc21,> 80 µM (inactive)
2,CN1/C(=C\C(=O)c2cncc(Br)c2)C(C)(C)c2ccccc21,30.2 µM (inactive)
3,Cc1ccc(C(=O)NNc2c3ccccc3nc3ccccc23)cc1,> 80 µM (inactive)
4,COc1ccccc1N=Nc1nc(-c2ccccc2)c(-c2ccccc2)[nH]1,> 80 µM (inactive)
5,C[n+]1c2ccccc2nc2ccc(NCCO)cc21,> 80 µM (inactive)
6,COc1cc(-c2cc(=O)c3c(O)c(OC)c(OC)cc3o2)cc(OC)c1O,> 80 µM (inactive)
7,CN1/C(=C\C=N\NC(=O)c2ccc(O)cc2)C(C)(C)c2ccccc21,> 80 µM (inactive)
8,Cc1c(C(=O)O)c(O)cc2c1C(=O)c1c(O)c([C@@H]3O[C@H](CO)[C@@H](O)[C@H](O)[C@H]3O)c(O)c(O)c1C2=O,> 80 µM (inactive)
9,COc1ccc(OCC(=O)NNc2c3ccccc3nc3ccccc23)cc1,> 80 µM (inactive)
10,Oc1ccc(N=Nc2c(O)ccc3ccccc23)cc1,54.8 µM (inactive)
11,CN(CCCC(=O)O)c1ccc(N=Nc2ccc([N+](=O)[O-])cc2)cc1,15.8 µM
12,CN1/C(=C/C=C/c2n(C)c3cc([N+](=O)[O-])c([N+](=O)[O-])cc3[n+]2C)C(C)(C)c2ccccc21,39.5 µM (inactive)
13,O=C(NNc1c2ccccc2nc2ccccc12)c1ccccc1O,> 80 µM (inactive)
14,CN(C)/C=C/c1oc2ccc(O)cc2c1[N+](=O)[O-],> 80 µM (inactive)
15,O=c1cc2oc3cc(O)c(O)cc3c(-c3ccccc3[N+](=O)[O-])c-2cc1O,> 80 µM (inactive)
16,Cn1cccc1/C=C1/C(=O)NC(=S)N(Cc2ccc(F)cc2)C1=O,> 80 µM (inactive)
17,O=S(=O)(O)c1cc(O)c(N=Nc2ccc(O)cc2O)c2ccccc12,30.5 µM (inactive)
18,O=c1ccc2c(-c3ccccc3S(=O)(=O)O)c3ccc(O)c(O)c3oc-2c1O,> 80 µM (inactive)
19,Nc1nc(-c2ccccc2)c(N=Nc2ccccc2Cl)s1,> 80 µM (inactive)
20,CCN1C(=O)/C(=C2\C=Cc3ccccc3N2CC)SC1=S,> 80 µM (inactive)
21,COc1ccc2nc(-n3c(O)c(C4=c5ccccc5=NC4=O)[nH]c3=S)sc2c1,> 80 µM (inactive)
